From US20050232975A1, “Composition and method to improve quality and yield of meat products” (priority 2002, published 2005)

Key:
Assay type in all cases: in vivo
[1] = Vitamin C in the blood after oral administration to cattle
Protocol: Applicants have learned that oral administration of Vitamin C to cattle results in measurable Vitamin C in the blood in about 45 minutes. These blood levels reach a maximum level between about 45 minutes and about 2 hours. In certain embodiments, Applicants orally administer their composition to a meat-producing animal about 45 minutes prior to harvest. In certain embodiments, Applicants orally administer their composition to a meat-producing animal about 2 hours prior to harvest. In certain embodiments, Applicants orally administer their composition to a meat-producing animal about 6 hours prior to harvest. In certain embodiments, Applicants orally administer their composition to a meat-producing animal about 18 hours prior to harvest. In certain embodiments, Applicants orally administer their composition to a meat-producing animal about 24 hours prior to harvest. In certain embodiments, Applicants orally administer their composition to a meat-producing animal about 48 hours prior to harvest

[2] = tested on: beef cattle; experiment: Example II: pH of meat cuts post-harvest after one-time oral administration to beef cattle pre-harvest; settings: about 6 hours prior to harvest
Protocol: To study the dose/response efficacy of a one-time administration of Vitamin C to beef cattle on the pH of various cuts of meat prepared post-harvest, Applicants' studied four (4) treatments. Those treatments were is administered orally to 4 head of cattle about 6 hours prior to harvest. In a first control treatment, no Vitamin C was administered. In a second treatment, the animal's feed included about 50 grams of a phosphorylated Vitamin C sold in commerce by Roche Vitamins, Inc. under the name Rovimix® Stay-C®. In a third treatment, the animal's feed included about 100 grams of Rovimix® Stay-C®. In a fourth treatment, the animal's feed included about 150 grams of Rovimix® Stay-C®.
In treatments 2, 3, and 4, the phosphorylated Vitamin C was disposed in about 200 grams of grapefruit pulp. That Vitamin C/grapefruit pulp was orally administered to each of the cattle as a one-time bolus. In treatment 1, the control cattle were administered their normal diet.

[3] = tested on: beef cattle; experiment: Example I: water retention (drip loss, moisture, free/bound/immobile water) of meat cuts after one-time oral administration to beef cattle pre-harvest; set-up: Total moisture: unit not given here; settings: about 6 hours prior to harvest
Protocol: To study the dose/response efficacy of a one-time administration of Vitamin C to beef cattle on the water retention of various cuts of meat prepared post-harvest, Applicants' studied four (4) treatments. Those treatments were is administered orally to 4 head of cattle about 6 hours prior to harvest. In a first control treatment, no Vitamin C was administered. In a second treatment, the animal's feed included about 50 grams of a phosphorylated Vitamin C sold in commerce by Roche Vitamins, Inc. under the name Rovimix® Stay-C®. In a third treatment, the animal's feed included about 100 grams of Rovimix® Stay-C®. In a fourth treatment, the animal's feed included about 150 grams of Rovimix® Stay-C®. Table I summarizes the results of this Example I. In treatments 2, 3, and 4, the phosphorylated Vitamin C was disposed in about 200 grams of grapefruit pulp. That Vitamin C/grapefruit pulp was orally administered to each of the cattle as a one-time drench. In treatment 1, the control cattle were administered the normal diet. By “LD,” Applicants mean meat products comprising the Longissimus dorsi muscle. These cuts are sold in commerce as, for example, strip loins. By “SM,” Applicants mean meat products comprising the Semimembranosus/adductor muscle. These cuts are sold in commerce as, for example, top round or inside round. By “TRI,” Applicants mean products comprising the triceps brachii muscle sometimes called the shoulder clod. These cuts are sold in commerce as, for example, beef roasts.

[4] = 0 min after harvest, 50 grams oral
[5] = 0 min after harvest, 100 grams oral
[6] = 0 min after harvest, 150 grams oral
[7] = 30 min after harvest, 50 grams oral
[8] = 30 min after harvest, 100 grams oral
[9] = 30 min after harvest, 150 grams oral
[10] = 60 min after harvest, 50 grams oral
[11] = 60 min after harvest, 100 grams oral
[12] = 60 min after harvest, 150 grams oral
[13] = 90 min after harvest, 50 grams oral
[14] = 90 min after harvest, 100 grams oral
[15] = 90 min after harvest, 150 grams oral
[16] = 120 min after harvest, 50 grams oral
[17] = 120 min after harvest, 100 grams oral
[18] = 120 min after harvest, 150 grams oral
[19] = 150 min after harvest, 50 grams oral
[20] = 150 min after harvest, 100 grams oral
[21] = 150 min after harvest, 150 grams oral
[22] = 180 min after harvest, 50 grams oral
[23] = 180 min after harvest, 100 grams oral
[24] = 180 min after harvest, 150 grams oral

O=C1O[C@H]([C@@H](O)CO)C(O)=C1O [Vitamin C, L-ascorbic acid]
time to measurable Vitamin C in the blood ([1]; bovine, in vivo, po): about 45 minutes
time at which blood levels reach a maximum level ([1]; oral administration to cattle): about 45 minutes and about 2 hours
Measured pH Of Beef Roast [2, 4]: 6.82
Measured pH Of Strip Loin [2, 4]: 6.78
Measured pH Of Top Round Cuts [2, 4]: 6.70
Measured pH Of Beef Roast [2, 5]: 6.73
Measured pH Of Strip Loin [2, 5]: 6.78
Measured pH Of Top Round Cuts [2, 5]: 6.70
Measured pH Of Beef Roast [2, 6]: 6.77
Measured pH Of Strip Loin [2, 6]: 6.76
Measured pH Of Top Round Cuts [2, 6]: 6.64
Measured pH Of Beef Roast [2, 7]: 6.41
Measured pH Of Strip Loin [2, 7]: 6.45
Measured pH Of Top Round Cuts [2, 7]: 6.46
Measured pH Of Beef Roast [2, 8]: 6.43
Measured pH Of Strip Loin [2, 8]: 6.45
Measured pH Of Top Round Cuts [2, 8]: 6.44
Measured pH Of Beef Roast [2, 9]: 6.44
Measured pH Of Strip Loin [2, 9]: 6.36
Measured pH Of Top Round Cuts [2, 9]: 6.47
Measured pH Of Beef Roast [2, 10]: 6.19
Measured pH Of Strip Loin [2, 10]: 6.22
Measured pH Of Top Round Cuts [2, 10]: 6.12
Measured pH Of Beef Roast [2, 11]: 6.19
Measured pH Of Strip Loin [2, 11]: 6.25
Measured pH Of Top Round Cuts [2, 11]: 6.36
Measured pH Of Beef Roast [2, 12]: 6.26
Measured pH Of Strip Loin [2, 12]: 6.22
Measured pH Of Top Round Cuts [2, 12]: 6.20
Measured pH Of Beef Roast [2, 13]: 6.11
Measured pH Of Strip Loin [2, 13]: 6.00
Measured pH Of Top Round Cuts [2, 13]: 5.84
Measured pH Of Beef Roast [2, 14]: 6.05
Measured pH Of Strip Loin [2, 14]: 6.02
Measured pH Of Top Round Cuts [2, 14]: 6.05
Measured pH Of Beef Roast [2, 15]: 6.06
Measured pH Of Strip Loin [2, 15]: 6.07
Measured pH Of Top Round Cuts [2, 15]: 5.91
Measured pH Of Beef Roast [2, 16]: 6.10
Measured pH Of Strip Loin [2, 16]: 5.83
Measured pH Of Top Round Cuts [2, 16]: 5.75
Measured pH Of Beef Roast [2, 17]: 5.96
Measured pH Of Strip Loin [2, 17]: 5.78
Measured pH Of Top Round Cuts [2, 17]: 5.81
Measured pH Of Beef Roast [2, 18]: 5.91
Measured pH Of Strip Loin [2, 18]: 5.88
Measured pH Of Top Round Cuts [2, 18]: 5.78
Measured pH Of Beef Roast [2, 19]: 6.01
Measured pH Of Strip Loin [2, 19]: 5.75
Measured pH Of Top Round Cuts [2, 19]: 5.60
Measured pH Of Beef Roast [2, 20]: 5.89
Measured pH Of Strip Loin [2, 20]: 5.76
Measured pH Of Top Round Cuts [2, 20]: 5.59
Measured pH Of Beef Roast [2, 21]: 5.80
Measured pH Of Strip Loin [2, 21]: 5.66
Measured pH Of Top Round Cuts [2, 21]: 5.67
Measured pH Of Beef Roast [2, 22]: 5.87
Measured pH Of Strip Loin [2, 22]: 5.67
Measured pH Of Top Round Cuts [2, 22]: 5.53
Measured pH Of Beef Roast [2, 23]: 5.83
Measured pH Of Strip Loin [2, 23]: 5.59
Measured pH Of Top Round Cuts [2, 23]: 5.55
Measured pH Of Beef Roast [2, 24]: 5.79
Measured pH Of Strip Loin [2, 24]: 5.50
Measured pH Of Top Round Cuts [2, 24]: 5.57
Percent moisture ([3]; LD cut, 50 grams oral): 0.7021
Total moisture ([3]; LD cut, 50 grams oral): 384.78
Total moisture ([3]; LD cut, 100 grams oral): 366.33
Bound water ([3]; LD cut, 150 grams oral): 78.6805%
Free water ([3]; LD cut, 150 grams oral): 21.3195%
Immobile water ([3]; LD cut, 150 grams oral): 57.3609%
Total moisture ([3]; LD cut, 150 grams oral): 354.2
Bound water ([3]; SM cut, 50 grams oral): 80.5196%
Free water ([3]; SM cut, 50 grams oral): 19.4804%
Immobile water ([3]; SM cut, 50 grams oral): 61.0392%
Percent moisture ([3]; SM cut, 50 grams oral): 0.6522
Total moisture ([3]; SM cut, 50 grams oral): 353.36
Bound water ([3]; SM cut, 100 grams oral): 83.959%
Free water ([3]; SM cut, 100 grams oral): 16.041%
Immobile water ([3]; SM cut, 100 grams oral): 67.918%
Total moisture ([3]; SM cut, 100 grams oral): 365.7
Bound water ([3]; SM cut, 150 grams oral): 75.6853%
Free water ([3]; SM cut, 150 grams oral): 24.3147%
Immobile water ([3]; SM cut, 150 grams oral): 51.3706%
Total moisture ([3]; SM cut, 150 grams oral): 371.99
Bound water ([3]; TRI cut, 50 grams oral): 77.269%
Free water ([3]; TRI cut, 50 grams oral): 22.731%
Immobile water ([3]; TRI cut, 50 grams oral): 54.5381%
Percent moisture ([3]; TRI cut, 50 grams oral): 0.7019
Total moisture ([3]; TRI cut, 50 grams oral): 376.45
Total moisture ([3]; TRI cut, 100 grams oral): 361.8
Bound water ([3]; TRI cut, 150 grams oral): 81.0096%
Free water ([3]; TRI cut, 150 grams oral): 18.9904%
Immobile water ([3]; TRI cut, 150 grams oral): 62.0192%
Total moisture ([3]; TRI cut, 150 grams oral): 399.11
